Results as given in PMC9495972, “Dissecting the Activity of Catechins as Incomplete Aldose Reductase Differential Inhibitors through Kinetic and Computational Approaches” (Biology, 2022).
“Also recorded” adds a separate entry of the source.

Columns and labels:
human recombinant AKR1B1 [1] = target: T1, human recombinant AKR1B1 (Homo sapiens, UniProt P15121); test: AKR1B1 activity inhibition, decrease in absorbance at 340 nm linked to NADPH oxidation; type: biochemical; details: for remaining activity at 800 µM: in the presence of 0.8 mM compound, read-out: residual activity; for IC50: 10 mU AKR1B1, 37 °C, pH 6.8, 95% CLs in text
T1 construct: made in house
Procedure: (§1) The AKR1B1 activity was determined at 37 °C, as previously described, monitoring the decrease in absorbance at 340 nm linked to NADPH oxidation (ε340 = 6.22 mM^−1·cm^−1) using a Biochrom Libra S60 spectrophotometer. The standard assay mixture (0.7 mL) contained 0.25 M sodium phosphate buffer pH 6.8, 0.18 mM NADPH, 0.4 M ammonium sulfate, 0.5 mM EDTA, and 4.7 mM GAL. One unit of enzyme activity is the amount of enzyme that catalyzes the conversion of 1 µmol of substrate/min in the above assay conditions.
IC50 values were determined by non-linear regression analysis using GraphPad Prism version 7.04 (GraphPad Software, San Diego, CA, USA). Values were obtained from at least six different inhibitors concentrations (each assayed at least in triplicate) and are reported with their 95% Confidence Limits (CLs). […] The final concentration of ethanol in the assay was never higher than 1%. […] The percentage of inhibition was calculated referring to an assay performed using the same solvent concentration in the absence of inhibitors.
(§2) The human recombinant AKR1B1 was expressed and purified to electrophoretic homogeneity, as previously described. […] The purified enzyme was stored at −80 °C in a 10 mM sodium phosphate buffer pH 7.0 containing 2 mM DTT and 30% (w/v) glycerol. Before use, AKR1B1 was extensively dialyzed against 10 mM sodium phosphate buffer pH 7.0.

human recombinant AKR1B1 [2] = target: T1, human recombinant AKR1B1; test: Inhibition kinetic analysis of AKR1B1-dependent reduction of L-idose, HNE and GSHNE; type: biochemical; details: for k+4: kinetic constant of ternary complex EIS to products; for Km: in the absence of inhibitors, read-out: KM of the substrate; for Km / kcat (k+2) of the substrate: at least 20 independent experiments; for kcat (k+2) of the substrate: in the absence of the inhibitor
Procedure: as §1, §2
The kinetic parameters ^appkcat and ^appKM were evaluated by non-linear regression analysis of rate measurements vs. substrate concentration according to Michaelis-Menten equation. The analysis was performed through GraphPad Prism 7.04 software by a non-linear “Robust Regression” analysis in which each point is individually weighted through iterative weighing of the smallest squares. The same approach was adopted to analyze the dependence of ^appkcat, ^appKM, and ^appKM/^appkcat from the concentration of the inhibitors [I], making use of previously derived equations [27] (see text).
The hyperbolic kinetic equation for an incomplete mixed type of inhibition analyzed with both branches of product formation at the steady state and with the inhibitor binding at equilibrium, was defined using the apparent kinetic parameters ^appKM and ^appkcat (Equations (1)–(3), see ref [27] for further details). (1) kappcat=Ki*k+2+k+4[I]/Ki*+[I] (2) appKM=KMKi*+(Ki*/KiKM+k+4/k+1)[I]+k+4/Kik+1[I]^2/Ki*+[I] (3) appKM/appkcat= KMKi*+(Ki*/KiKM+k+4/k+1)[I]+k+4/Kik+1[I]^2/Ki*k+2+k+4[I]
Thus, ^appkcat and ^appKM values emerging from non-linear regression analysis of primary data (Figure 3) were analyzed through non-linear regression using Equations (1) and (2), respectively. […] The above starting values of kcat and KM derived from at least 20 independent experiments in which kinetic parameters were measured in the absence of inhibitors. […] The k+4 values are reported in Table 1 as the average of values emerging from ^appKM/^appkcat versus [I] (Equation (3) or Equation (4)) and 1/^appkcat versus [I] (Equation (1)) plots.

AKR1B1 = details: cited from earlier work
human AKR1B1 [3] = system: human AKR1B1; parameters: method as in PMID 32640594; details: in the absence of GCG; cited from earlier work
human AKR1B1 [4] = test: Docking, MD simulations and MM-PBSA binding free energy evaluations
Procedure: The X-ray structure of human AKR1B1 in complex with D-glyceraldehyde and the NADP cofactor (PDB code 3V36), as well as the co-crystal structure of human AKR1B1 in complex with a nitrofuryl-oxadiazol inhibitor (PDB code 2IKH), were downloaded from the Protein Data Bank. Molecular docking calculations were performed with GOLD 5.1 (CCDC Software Ltd., Cambridge, UK) with the Piecewise Linear Potential (PLP) fitness function; both the two X-ray structures and the previously predicted protein–substrate complexes (i.e., AKR1B1-L-idose, AKR1B1-HNE, and AKR1B1-GSHNE) were employed as the protein. […] When protein–substrate complexes were used as the receptor, the ten top-scored clusters of solutions in which the ligand formed at least one H-bond with the substrate were selected as the best clusters of solutions, which were considered for further analyses.
Molecular dynamics (MD) simulations were performed with AMBER 20 [32] using the ff14SB force field. General Amber force field (GAFF) parameters were used for the ligands, the substrates, and the cofactor, whose partial charges were calculated with the AM1-BCC method as implemented in the Antechamber suite of AMBER 20 (University of California, San Francisco, CA, USA). […] Each analyzed complex was placed in a rectangular parallelepiped water box, using the TIP3P explicit solvent model for water, and solvated with a 15 Å water cap. […]

[5] = GSHNE reduction, calculated using k+2 109 ± 8 min^−1
[6] = HNE reduction, calculated using k+2 78 ± 4 min^−1
[7] = L-idose reduction, calculated using k+2 195 ± 6 min^−1

## Oc1cc(O)c2c(c1)O[C@H](c1ccc(O)c(O)c1)[C@H](O)C2 [EC, epicatechin]
Human recombinant AKR1B1 [1]
  remaining activity at 800 µM: ~70%

## O=C(O[C@@H]1Cc2c(O)cc(O)cc2O[C@@H]1c1ccc(O)c(O)c1)c1cc(O)c(O)c(O)c1 [ECG, epicatechin gallate]
Human recombinant AKR1B1 [1]; IC50 for GSHNE reduction, […] GSHNE as substrate
  IC50: 143 µM
Human recombinant AKR1B1 [1]; IC50 for HNE reduction, 0.03 mM HNE as substrate
  IC50: 257 µM
Human recombinant AKR1B1 [1]; IC50 for the reduction of L-idose, 8 mM L-idose as substrate
  IC50: 67 µM
Human recombinant AKR1B1 [2]; GSHNE reduction
  Ki/Ki*: approximately 2
  inhibition type: mixed inhibition type
  k+4: 15.6 ± 4.3 min⁻¹
Human recombinant AKR1B1 [2]; [5]
  k+4/k+2 (%): 14.3 ± 3.9%
Human recombinant AKR1B1 [2]; [6]
  k+4/k+2 (%): 8.6 ± 0.4%
Human recombinant AKR1B1 [2]; HNE reduction
  k+4: 6.7 ± 2.7 min⁻¹
Human recombinant AKR1B1 [2]; Ki*, GSHNE reduction, apparent dissociation constant of ternary complex EIS
  Ki: 46 ± 11 µM
Human recombinant AKR1B1 [2]; Ki*, HNE reduction, apparent dissociation constant of ternary complex EIS
  Ki: 54 ± 9 µM
Human recombinant AKR1B1 [2]; Ki*, L-idose reduction, apparent dissociation constant of ternary complex EIS
  Ki: 46 ± 5 µM
Human recombinant AKR1B1 [2]; Ki, GSHNE reduction, dissociation constant of enzyme-inhibitor complex
  Ki: 91 ± 10 µM
Human recombinant AKR1B1 [2]; Ki, HNE reduction, dissociation constant of enzyme-inhibitor complex
  Ki: > 10000 µM
Human recombinant AKR1B1 [2]; Ki, L-idose reduction, dissociation constant of enzyme-inhibitor complex
  Ki: 116 ± 8 µM
Human recombinant AKR1B1 [2]; L-idose reduction
  inhibition type: mixed inhibition type
  k+4: 5.2 ± 3.2 min⁻¹
Human recombinant AKR1B1 [2]; [7]
  k+4/k+2 (%): 2.7 ± 1.7%

## Oc1cc(O)c2c(c1)O[C@H](c1cc(O)c(O)c(O)c1)[C@H](O)C2 [EGC, epigallocatechin]
AKR1B1
  inhibitory action on AKR1B1 (in words): inhibits AKR1B1 irrespective of the used substrate

## O=C(O[C@@H]1Cc2c(O)cc(O)cc2O[C@@H]1c1cc(O)c(O)c(O)c1)c1cc(O)c(O)c(O)c1 [EGCG, epigallocatechin gallate]
AKR1B1
  inhibitory action on AKR1B1 (in words): preserved only HNE reduction; also recorded: act as ARDIs, even though not complete

## O=C(O)c1cc(O)c(O)c(O)c1 [GA, gallic acid]
AKR1B1
  inhibitory action on AKR1B1 (in words): act as ARDIs, even though not complete

## Oc1cc(O)c2c(c1)O[C@H](c1cc(O)c(O)c(O)c1)[C@@H](O)C2 [GC, gallocatechin]
Human recombinant AKR1B1 [1]
  remaining activity at 800 µM: ~70%

## O=C(O[C@@H]1Cc2c(O)cc(O)cc2O[C@H]1c1cc(O)c(O)c(O)c1)c1cc(O)c(O)c(O)c1 [GCG, gallocatechin gallate]
Human recombinant AKR1B1 [2]; GSHNE reduction
  inhibition type: uncompetitive inhibition
  k+4: 6.0 ± 1.0 min⁻¹
Human recombinant AKR1B1 [2]; [6]
  k+4/k+2 (%): 12.2 ± 1.1%
Human recombinant AKR1B1 [2]; HNE reduction
  k+4: 9.5 ± 0.9 min⁻¹
Human recombinant AKR1B1 [2]; L-idose reduction
  inhibition type: mixed inhibition type
  k+4: 5.6 ± 0.5 min⁻¹
Human recombinant AKR1B1 [2]; [7]
  k+4/k+2 (%): 2.9 ± 0.25%

## CCCCCC(O)C(CC=O)SC[C@H](NC(=O)CC[C@H](N)C(=O)O)C(=O)NCC(=O)O (some centres unmarked) [GSHNE, 3-glutathionyl-4-hydroxynonanal adduct]
Human recombinant AKR1B1 [2]
  Km: 120 ± 16 µM
  kcat (k+2) of the substrate: 109 ± 8 min⁻¹
Human AKR1B1 [3]
  binding affinity estimated for the substrate bound to AKR1B1: -30.3 kcal/mol

## CCCCCC(O)/C=C/C=O (centres unmarked) [HNE, 4-hydroxynonenal]
Human recombinant AKR1B1 [2]
  Km: 51 ± 5 µM
  kcat (k+2) of the substrate: 78 ± 4 min⁻¹
Human AKR1B1 [3]
  binding affinity estimated for the substrate bound to AKR1B1: -18.6 kcal/mol

## O=C[C@H](O)[C@@H](O)[C@H](O)[C@@H](O)CO [L-idose]
Human recombinant AKR1B1 [2]
  Km: 4260 ± 300 µM
  kcat (k+2) of the substrate: 195 ± 6 min⁻¹
Human AKR1B1 [4]; due to the presence of GCG
  increase in the binding affinity of the substrate for the complex: 32%
Human AKR1B1 [4]; presence versus absence of GCG
  lowering of substrate binding free energy with GCG versus without: 5.5 kcal/mol
Human AKR1B1 [3]
  binding affinity estimated for the substrate bound to AKR1B1: -17.4 kcal/mol

## C[C@@H]1O[C@@H](O[C@H]2[C@H](O[C@H]3[C@H](O[C@H]4CC[C@@]5(C)[C@@H](CC[C@]6(C)[C@@H]5CC=C5[C@@H]7CC(C)(C)C[C@@H](O)[C@]7(C)CC[C@]56C)[C@@]4(C)CO)O[C@H](C(=O)O)[C@@H](O)[C@@H]3O)O[C@H](CO)[C@H](O)[C@@H]2O)[C@H](O)[C@H](O)[C@H]1O [soyasaponin Bb]
AKR1B1
  inhibitory action on AKR1B1 (in words): acting as ARDI

## catechin gallate [CG]
Human recombinant AKR1B1 [2]; GSHNE reduction
  inhibition type: uncompetitive inhibition
  k+4: 4.1 ± 0.8 min⁻¹
Human recombinant AKR1B1 [2]; [5]
  k+4/k+2 (%): 3.8 ± 0.8%
Human recombinant AKR1B1 [2]; [6]
  k+4/k+2 (%): approximately 6%
Human recombinant AKR1B1 [2]; HNE reduction
  k+4: 4.7 ± 0.7 min⁻¹
Human recombinant AKR1B1 [2]; L-idose reduction
  inhibition type: mixed inhibition type
  k+4: 1.4 ± 0.6 min⁻¹
Human recombinant AKR1B1 [2]; [7]
  k+4/k+2 (%): 0.7 ± 0.3%
